One block for each molecule: values may come before it.
How the values were obtained:
[1] = Binding affinity to […] by fluorescence assay; design: species or system Hepacivirus hominis
Hepatitis C virus [2] = test: Antiviral activity against HCV genotype 1b infected in human Huh7 cells assessed as inhibition of viral replication after 72 hrs by ELISA; assay type: functional, organism-based, Hepacivirus hominis; settings: Huh-7, 72 h
Hepatitis C virus [3] = test: Antiviral activity against HCV genotype 1b infected in human Huh7 cells assessed as inhibition of viral replication by luciferase reporter-based viral replicon assay; assay type: functional, organism-based, Hepacivirus hominis; settings: Huh-7
Hepatitis C virus [4] = test: Antiviral activity against HCV genotype 1b after 3 days by luciferase reporter assay; assay type: functional, organism-based, Hepacivirus hominis; settings: 72 h
[5] = Inhibition of HCV NS3/4A protease; design: species or system Hepacivirus hominis
Hepatitis C virus [6] = test: Antiviral activity against HCV genotype 1b; assay type: functional, organism-based, Hepacivirus hominis
Hepatitis C virus [7] = test: Antiviral activity against HCV genotype 2a; assay type: functional, organism-based, Hepacivirus hominis
Hepatitis C virus [8] = test: Antiviral activity against HCV genotype 1a infected in human Huh7 cells assessed as inhibition of viral replication by luciferase reporter-based viral replicon assay; assay type: functional, Hepacivirus hominis; settings: subtype 1a, Huh-7
[9] = Inhibition of HCV GST-tagged recombinant NS3/4A protease expressed in Escherichia coli by microfluidic affinity assay; design: species or system Hepacivirus hominis
Hepatitis C virus [10] = test: Antiviral activity against HCV genotype 2a infected in Huh7.5 cells assessed as inhibition of viral replication at 72 hrs by luciferase reporter-based viral replicon assay; assay type: functional, organism-based, Hepacivirus hominis; settings: Huh7.5, 72 h
Hepatitis C virus [11] = test: Antiviral activity against HCV genotype 1b infected in Huh7.5 cells assessed as inhibition of viral replication at 72 hrs by luciferase reporter-based viral replicon assay; assay type: functional, organism-based, Hepacivirus hominis; settings: Huh7.5, 72 h

Kd [1]: 1 µM
EC50 (Hepatitis C virus [2]): 3.2 µM
SMILES: CC(=O)c1ccc(NC(=O)c2cc3c(C)nn(-c4ccccc4)c3s2)cc1

EC90 (Hepatitis C virus [3]): > 10 µM
SMILES: CC(C)C[C@H]1CN(C(=O)/C=C/c2ccc([N+](=O)[O-])cc2)[C@@H](CC(C)C)C(=O)N1

EC50 (Hepatitis C virus [4]): 0.00021 µM
SMILES: Cc1cnc(C(=O)N[C@H]2CCCCC/C=C\[C@@H]3C[C@@]3(C(=O)NS(=O)(=O)C3CC3)NC(=O)[C@@H]3C[C@@H](Oc4nc5ccccc5c5ccccc45)CN3C2=O)cn1

Ki [5]: 0.014 µM
SMILES: CC(C)(C)NC(=O)N[C@H](C(=O)N1C[C@H]2[C@@H]([C@H]1C(=O)NC(CC1CCC1)C(=O)C(N)=O)C2(C)C)C(C)(C)C (some centres undefined) [BOCEPREVIR]

EC90 (Hepatitis C virus [3]): > 10 µM
SMILES: CC(C)C[C@H]1CN(C(=O)C2CC2)[C@@H](CC(C)C)C(=O)N1

Kd [1]: 2.1 µM
EC50 (Hepatitis C virus [2]): 2.2 µM
SMILES: Cc1nccn1-c1nc(-c2ccc(Cl)cc2)cc(C(F)(F)F)n1

Kd [1]: 0.3 µM
EC50 (Hepatitis C virus [2]): 0.7 µM
SMILES: COC(=O)c1c(NC(=O)Cc2cccs2)sc(C(=O)Nc2ccc(Cl)cc2)c1C

Kd [1]: 1.2 µM
EC50 (Hepatitis C virus [2]): 1.13 µM
SMILES: CCCCc1c(C)nn(-c2nnc3c4ccccc4n(CC)c3n2)c1C

EC90 (Hepatitis C virus [3]): 0.06 µM
SMILES: C/C=C/[C@H]1CN(C(=O)c2cc(-c3ccc(F)cc3)on2)[C@@H](CC(C)C)C(=O)N1

EC50 (Hepatitis C virus [6]): 2.5 µM
EC50 (Hepatitis C virus [7]): 3.7 µM
SMILES: CC(C)CN(C)c1nc(N)c(C(=O)N=C(N)N)nc1Cl [5-(N-METHYL-N-ISOBUTYL)AMILORIDE]

EC90 (Hepatitis C virus [3]): 0.09 µM
SMILES: CC(C)C[C@H]1C(=O)N[C@@H](C2CCCC2)CN1C(=O)c1cc(-c2ccc(F)cc2)on1

EC90 (Hepatitis C virus [3]): 0.006 µM
EC90 (Hepatitis C virus [8]): 0.022 µM
SMILES: CC(C)C[C@H]1C(=O)N[C@@H](c2cccs2)CN1C(=O)c1cc(-c2ccc(F)cc2)on1

EC90 (Hepatitis C virus [3]): 1.5 µM
SMILES: CC(C)C[C@H]1CN(C(=O)/C=C/c2ccc(F)cc2)[C@@H](CC(C)C)C(=O)N1

EC90 (Hepatitis C virus [3]): 2.6 µM
SMILES: CC(C)C[C@H]1CN(C(=O)c2cc(-c3ccc([N+](=O)[O-])cc3)on2)[C@@H](CC(C)C)C(=O)N1

EC90 (Hepatitis C virus [3]): 1.3 µM
SMILES: COc1ccc(-c2cc(C(=O)N3C[C@H](CC(C)C)NC(=O)[C@@H]3CC(C)C)no2)cc1

IC50 [9]: 0.024 µM
EC50 (Hepatitis C virus [10]): 8 µM
EC50 (Hepatitis C virus [11]): 23 µM
SMILES: Clc1ccc(Cn2c(CN3CCCC3)nc3ccccc32)cc1 [CLEMIZOLE]

EC90 (Hepatitis C virus [3]): > 10 µM
SMILES: CC(C)C[C@H]1C(=O)N[C@@H](CO)CN1C(=O)c1cc(-c2ccc(F)cc2)on1

EC90 (Hepatitis C virus [3]): > 10 µM
SMILES: CC[C@H](C)[C@H]1CN(C(=O)c2cc(-c3ccc(F)cc3)on2)[C@@H](CC(C)C)C(=O)N1

EC90 (Hepatitis C virus [3]): > 10 µM
SMILES: CC[C@H](C)[C@H]1CN(C(=O)[C@@H]2C[C@H]2c2ccccc2)[C@@H](CC(C)C)C(=O)N1

EC90 (Hepatitis C virus [3]): 3.3 µM
SMILES: CC(C)C[C@H]1CN(C/C=C/c2ccccc2)[C@@H](CC(C)C)C(=O)N1

Ki [5]: 0.007 µM
EC50 (Hepatitis C virus [6]): 0.35 µM
SMILES: CCC[C@H](NC(=O)[C@@H]1[C@H]2CCC[C@H]2CN1C(=O)[C@@H](NC(=O)[C@@H](NC(=O)c1cnccn1)C1CCCCC1)C(C)(C)C)C(=O)C(=O)NC1CC1

EC90 (Hepatitis C virus [3]): > 10 µM
SMILES: CC(C)C[C@H]1CN(C(=O)/C=C\c2ccccc2)[C@@H](CC(C)C)C(=O)N1

EC90 (Hepatitis C virus [3]): 1.6 µM
SMILES: CC(C)C[C@H]1CN(C(=O)/C=C/c2ccc(Cl)cc2)[C@@H](CC(C)C)C(=O)N1

EC90 (Hepatitis C virus [3]): 8.8 µM
SMILES: CC(C)C[C@H]1CN(C(=O)[C@@H]2C[C@H]2c2ccccc2)[C@@H](CC(C)C)C(=O)N1C

EC50 (Hepatitis C virus [11]): 3.7 µM
SMILES: Clc1ccc(Cn2nc(OCCCN3CCCC3)c3ccccc32)cc1
